In ChEMBL document CHEMBL1157075, “Antiangiogenic metabolites from a marine-derived fungus, Hypocrea vinosa” (J Nat Prod, 2010):
Active and inactive are the calls of the source. The calls are words filed in the database; no cut-off is given here.

Tests used:
[1] = system: HUVEC; test: Inhibition of VEGF-induced HUVEC migration at 0.1 ug/ml after 22 hrs by microscopy; assay type: functional; settings: Homo sapiens
[2] = system: HUVEC; test: Inhibition of VEGF-induced HUVEC migration at 1 ug/ml after 22 hrs by microscopy; assay type: functional; settings: Homo sapiens
[3] = system: HUVEC; test: Inhibition of VEGF-induced HUVEC migration at 10 ug/ml after 22 hrs by microscopy; assay type: functional; settings: Homo sapiens
[4] = system: HUVEC; test: Inhibition of protein tyrosine kinase in HUVEC lysates at 1 ug/ml after 2 hrs; assay type: cell-based; settings: Homo sapiens
[5] = Inhibition of protein tyrosine kinase in HUVEC lysates after 2 hrs; assay type: cell-based, Homo sapiens
[6] = system: HUVEC; test: Inhibition of VEGF-induced HUVEC migration after 22 hrs by microscopy; assay type: functional, cell-based; settings: Homo sapiens
[7] = system: HUVEC; test: Antiproliferative activity against HUVEC after 72 hrs by MTT assay; assay type: cell-based; settings: Homo sapiens
[8] = system: NHDF; test: Antiangiogenic activity against NHDF assessed as inhibition VEGF-stimulated tubule formation at 10 ug/ml after 11 days by microscopy; assay type: functional, cell-based; settings: Homo sapiens
[9] = system: HUVEC; test: Antiangiogenic activity against HUVEC assessed as inhibition VEGF-stimulated tubule formation at 10 ug/ml after 11 days by microscopy; assay type: functional, cell-based; settings: Homo sapiens
[10] = system: HUVEC; test: Inhibition of protein tyrosine kinase in HUVEC lysates at 10 ug/ml after 2 hrs; assay type: cell-based; settings: Homo sapiens
[11] = system: HUVEC; test: Inhibition of protein tyrosine kinase in HUVEC lysates at 100 ug/ml after 2 hrs; assay type: cell-based; settings: Homo sapiens
[12] = organism: Mus musculus; test: Toxicity in mouse assessed as reduction of body weight; assay type: organism-based; settings: in vivo
[13] = system: P388; test: Antitumor activity against mouse P388 cells xenografted in mouse; assay type: functional
[14] = system: HeLa; test: Cytotoxicity against human HeLa cells after 72 hrs by WST8 assay; assay type: functional, cell-based
[15] = system: NHDF; test: Cytotoxicity against NHDF after 72 hrs by WST8 assay; assay type: cell-based; settings: Homo sapiens
[16] = system: P388; test: Antitumor activity against mouse P388 cells xenografted in mouse at 20 mg/kg; assay type: functional, organism-based; parameters: dose 20 mg/kg
[17] = system: Mus musculus; test: Toxicity in mouse at 60 mg/kg; assay type: organism-based; parameters: dose 60 mg/kg; settings: in vivo

SMILES | inhibition at 0.1 µg/mL [1] [%] | inhibition at 1 µg/mL [2] [%] | inhibition at 10 µg/mL [3] [%] | inhibition [4] [%] | IC50 [5] [µM] | IC50 [6] [µM] | IC50 [7] [µM] | inhibition [8] | inhibition [9] | inhibition [10] [%] | inhibition [11] [%] | Activity [12] | Activity [13] | further results
CC(=O)Cc1cc(=O)c2c(O)c3c(O)cc(O)c(-c4c(O)cc(O)c5c(O)c6c(=O)cc(CC(C)O)oc6cc45)c3cc2o1 (stereo not given) [HYPOCHROMIN A] | 28.9 | 62.2 | 100 | 0 | 58.7 | 0.87 | 50 | Active | Active | 21.9 | 73.4 |  |  | 
Cc1oc2cc3c(-c4c(O)cc(O)c5c(O)c6c(cc45)O[C@@H](C)[C@H](C)C6=O)c(O)cc(O)c3c(O)c2c(=O)c1C [CHAETOCHROMIN D] |  |  |  |  |  |  |  |  |  |  |  | Toxic | Active | 
CC(=O)Cc1cc(=O)c2c(O)c3c(O)cc(O)c(-c4c(O)cc(O)c5c(O)c6c(=O)cc(C)oc6cc45)c3cc2o1 [HYPOCHROMIN B] | 33.3 | 53.3 | 95.6 | 12.4 | 18 | 1.51 | 13.1 | Active | Active | 50 | 72.4 |  |  | 
CC(=O)Cc1cc(=O)c2c(O)c3c(O)cc(O)c(-c4c(O)cc(O)c5c(O)c6c(=O)cc(CC(C)=O)oc6cc45)c3cc2o1 | 20 | 57.8 | 86.7 | 11 | 42.1 | 1.09 | 17.4 | Active | Active | 38.3 | 66.2 |  |  | IC50 [14]: 209 µM; IC50 [15]: > 500 µM
C[C@H]1Oc2cc3c(-c4c(O)cc(O)c5c(O)c6c(cc45)O[C@H](C)[C@@H](C)C6=O)c(O)cc(O)c3c(O)c2C(=O)[C@@H]1C |  |  |  |  |  |  |  |  |  |  |  |  |  | Activity [16]: Active
Cc1cc(=O)c2c(O)c3c(O)cc(O)c(-c4c(O)cc(O)c5c(O)c6c(cc45)OC(C)CC6=O)c3cc2o1 (stereo not given) [USTILAGINOIDIN G] |  |  |  |  |  |  |  |  |  |  |  | Toxic | Active | 
CC1CC(=O)c2c(cc3c(-c4c(O)cc(O)c5c(O)c6c(cc45)O[C@H](C)[C@@H](C)C6=O)c(O)cc(O)c3c2O)O1 (stereo not given in full) [CHAETOCHROMIN C] |  |  |  |  |  |  |  |  |  |  |  | Toxic | Active | 
Cc1cc(=O)c2c(O)c3c(O)cc(O)c(-c4c(O)cc(O)c5c(O)c6c(=O)cc(C)oc6cc45)c3cc2o1 [USTILAGINOIDIN A] |  |  |  |  |  |  |  |  |  |  |  |  |  | Activity [17]: Toxic
C[C@@H]1Oc2cc3c(-c4c(O)cc(O)c5c(O)c6c(cc45)O[C@H](C)[C@@H](C)C6=O)c(O)cc(O)c3c(O)c2C(=O)[C@@H]1C [CHAETOCHROMIN B] |  |  |  |  |  |  |  |  |  |  |  | Toxic | Active | 
